Data as given in patent US20060210479A1 (Dow Global Technologies Inc., priority 2004, published 2006).
Like-named read-outs stand apart in the source and are kept apart here.

Experiments:
[1] = Solubility of chelate compounds
HEK293 cells = experiment: Adsorption of chelate compounds to cells (HPLC and mass spectrometry); type: cell-based, human; settings: for Adsorption HEK293: 50 µM chelate compound, 0, 30 and 90 minutes at 37 °C, % adsorbed relative to time zero
Excerpt: (§1) As a prerequisite for the understanding of the functional attributes of Tb-PCTMB and Eu-QCTME for diagnostics and therapeutic purposes, and for other uses, it is useful to synthesize a series of chelate compounds that contain structural elements of both PCTMB and QCTME and test these compounds for adsorption and permeability to different cell lines. The first approach was to test for adsorption to a normal cell line (HEK293) and to two epithelial cancer cell lines (LNCaP and Caco-2). The second approach, described in this example, involves testing only the compounds that adsorbed in the cancer cell lines and not in the normal cell lines for permeability. Adsorption and permeability of the compounds to epithelial cancer cell lines and a normal cell line was measured through the detection of the compound by HPLC and mass spectrometry.
(§2) Cell cultures. LNCaP cell line is a human prostate carcinoma. Cells were grown in RPMI 1640 Medium supplemented 10% FBS, 2 mM L-glutamine, glucose (2 g/L) augmented with gentamicin (50 μg/mL), penicillin/streptomycin (100 IU/mL/100 μg/mL) and amphotericin B (2.5 μg/mL). Caco-2 cell line is a human colorectal carcinoma. These cells were grown in Eagle's Minimum Essential Medium supplemented with 20% FBS, Earle's BSS, 2 mM L-glutamine, 1.0 mM sodium pyruvate, 0.1 mM nonessential amino acids augmented with gentamicin (50 μg/mL), penicillin/streptomycin (100 IU/mL/100 μg/mL), and amphotericin B (2.5 μg/mL). The human kidney transformed cells HEK293 were grown in Eagle's Minimum Essential Medium (EMEM) supplemented with 10% (v/v) heat-inactivated fetal bovine serum, sodium pyruvate, nonessential amino acids and antibiotics in a humidified 5% CO2 atmosphere at 37° C. Medium and supplements were purchased from Gibco BRL (Grand Island, N.Y.) and all cell lines were obtained from ATCC.
(§3) Detection of chelate compounds for the determination of adsorption. Cells were grown to confluence in T-150 flasks (about 2×10^7 cells). Before treating with chelate compounds, cells were rinsed twice with warm 10 mM HEPES (Gibco BRL, Grand Island N.Y.), removed from the flask, and transferred to a 50-mL conical tube and centrifuged (400×g) for 5 minutes. The resulting cells were treated with individual chelate compounds with 50 µM of chelate compounds in 10 mM HEPES, pH 7.4, 5 mM KCl, 150 mM NaCl, 0.7 mM NaH2PO4 for 0, 30, and 90 minutes at 37 ° C. After treatment, cells were pelleted by centrifugation and the resulting solution was analyzed by a combination of HPLC and mass spectrometry.

LNCaP cells = experiment: as above; type: cell-based, human; settings: for Adsorption LNCaP: 50 µM chelate compound, 0, 30 and 90 minutes at 37 °C, % adsorbed relative to time zero
Excerpt: as §1, §2, §3

Caco-2 cells = experiment: as above; type: cell-based, human; settings: for Adsorption Caco-2: 50 µM chelate compound, 0, 30 and 90 minutes at 37 °C, % adsorbed relative to time zero
Excerpt: as §1, §2, §3

| Structure (SMILES) | solubility [1] | Adsorption HEK293 (HEK293 cells) | Adsorption LNCaP (LNCaP cells) | Adsorption Caco-2 (Caco-2 cells) | solubility ([1]; <5% methanol, ethanol, or DMSO) | adsorption in normal cells (HEK293) (HEK293 cells) | adsorption in carcinoma cell line LNCaP (LNCaP cells) | adsorption in carcinoma cell line Caco-2 (Caco-2 cells; Caco-2) | adsorption in carcinoma cell line Caco-2 (Caco-2 cells) |
| --- | --- | --- | --- | --- | --- | --- | --- | --- | --- |
| CCCCN(CCCC)Cc1cc(CN(CCCC)CCCC)cc(CN(CCCC)CCCC)c1 [Compound 15, (3,5-Bis-dibutylaminomethyl-benzyl)-dibutyl-amine] | < 10 mM | – | – | – | – | – | – | – | – |
| CN(C)Cc1cc(CN(C)C)cc(CN(C)C)c1 [Compound 13, (3,5-Bis-dimethylaminomethyl-benzyl)-dimethylamine] | – | 0 (0 = 0-10%) | 0 (0 = 0-10%) | 0 (0 = 0-10%) | > 10 mM | – | – | – | – |
| COP(=O)(O)CNCCCN(CCCNCP(=O)(O)OC)CP(=O)(O)OC [Compound 19, [(Bis-{3-[(hydroxy-methoxy-phosphorylmethyl)-amino]-propyl}-amino)-methyl]-phosphonic acid monomethyl ester] | – | ++ (++ = 21-40%) | ++ (++ = 21-40%) | ++ (++ = 21-40%) | > 10 mM | adsorbed | adsorbed | adsorbed | – |
| CCOP(=O)(O)Cc1cccc(CP(=O)(O)OCC)n1 [Compound 5, [6-(Hydroxy-ethoxy-phosphorylmethyl)-pyridin-2-ylmethyl]-phosphonic acid monoethyl ester] | – | + (+ = 11-20%) | + (+ = 11-20%) | 0 (0 = 0-10%) | > 10 mM | – | – | – | – |
| CCOP(=O)(O)CNCCCN(CCCNCP(=O)(O)OCC)CP(=O)(O)OCC [Compound 20, [(Bis-{3-[(ethoxy-hydroxy-phosphorylmethyl)-amino]-propyl}-amino)-methyl]-phosphonic acid monoethyl ester] | – | ++ (++ = 21-40%) | ++ (++ = 21-40%) | ++ (++ = 21-40%) | > 10 mM | adsorbed | adsorbed | adsorbed | – |
| COP(=O)(O)Cc1cccc(CP(=O)(O)OC)n1 [Compound 4, [6-(Hydroxy-methoxy-phosphorylmethyl)-pyridin-2-ylmethyl]-phosphonic acid monomethyl ester] | – | ++ (++ = 21-40%) | ++ (++ = 21-40%) | ++ (++ = 21-40%) | > 10 mM | adsorbed | adsorbed | – | adsorbed |
| COP(=O)(O)Cc1ccc2cc(C)ccc2n1 [Compound 1] | – | 0 (0 = 0-10%) | 0 (0 = 0-10%) | 0 (0 = 0-10%) | > 10 mM | did not adsorb | did not adsorb | – | did not adsorb |
| COP(=O)(O)Cc1c(C)c(CP(=O)(O)OC)c(C)c(CP(=O)(O)OC)c1C [Compound 10, [3,5-Bis-(Methoxy-hydroxy-phosphorylmethyl)-2,4,6-trimethyl-benzyl]-phosphonic acid monomethyl ester] | – | 0 (0 = 0-10%) | 0 (0 = 0-10%) | 0 (0 = 0-10%) | > 10 mM | did not adsorb | did not adsorb | – | did not adsorb |
| CCN(CC)CCCN(CC)CCCN(CC)CC [Compound 23, N-(3-Diethylamino-propyl)-N,N′,N′-triethyl-propane-1,3-diamine] | – | + (+ = 11-20%) | + (+ = 11-20%) | ++ (++ = 21-40%) | > 10 mM | adsorbed | adsorbed | – | adsorbed |
| CCCCOP(=O)(O)Cc1cccc(CP(=O)(O)OCCCC)n1 [Compound 6, [6-(Hydroxy-butoxy-phosphorylmethyl)-pyridin-2-ylmethyl]-phosphonic acid monobutyl ester] | – | +++ (+++ = 41-60%) | +++ (+++ = 41-60%) | +++ (+++ = 41-60%) | > 10 mM | adsorbed | adsorbed | – | adsorbed |
| CCN(CC)Cc1c(C)c(CN(CC)CC)c(C)c(CN(CC)CC)c1C [Compound 17, (3,5-Bis-diethylaminomethyl-2,4,6-trimethyl-benzyl)-diethyl-amine] | < 10 mM | – | – | – | – | – | – | – | – |
| CCOP(=O)(O)Cc1c(C)c(CP(=O)(O)OCC)c(C)c(CP(=O)(O)OCC)c1C [Compound 11, [3,5-Bis-(Ethoxy-hydroxy-phosphorylmethyl)-2,4,6-trimethyl-benzyl]-phosphonic acid monoethyl ester] | – | 0 (0 = 0-10%) | 0 (0 = 0-10%) | 0 (0 = 0-10%) | > 10 mM | – | – | – | – |
| COP(=O)(O)Cc1cc(CP(=O)(O)OC)cc(CP(=O)(O)OC)c1 [Compound 7, [3,5-Bis-(Methoxy-hydroxy-phosphorylmethyl)-benzyl]-phosphonic acid monomethyl ester] | – | 0 (0 = 0-10%) | 0 (0 = 0-10%) | 0 (0 = 0-10%) | > 10 mM | did not adsorb | did not adsorb | – | did not adsorb |
| Cc1c(CN(C)C)c(C)c(CN(C)C)c(C)c1CN(C)C [Compound 16, (3,5-Bis-dimethylaminomethyl-2,4,6-trimethyl-benzyl)-dimethyl-amine] | – | 0 (0 = 0-10%) | 0 (0 = 0-10%) | 0 (0 = 0-10%) | > 10 mM | – | – | – | – |
| CCCCN(CCCC)Cc1c(C)c(CN(CCCC)CCCC)c(C)c(CN(CCCC)CCCC)c1C [Compound 18, (3,5-Bis-dibutylaminomethyl-2,4,6-trimethyl-benzyl)-dibutyl-amine] | < 10 mM | – | – | – | – | – | – | – | – |
